This passage reports IC50, MIC and IC90 results from patent US11098055B2, “Ester ACC inhibitors and uses thereof” (Gilead Apollo, LLC, priority 2015, dated 2021).

Values after ≈ are worked out from the molar mass of the structure shown. Where two headings read alike, the source gives them in different places. A value given as a limit tells only on which side of the number the result lay.

The target in one experiment is fACC2 (UniProt Q00955). Nature of the experiment: In vitro ACC2 inhibition assay (ADP-Glo), fungal ACC2. In kind it is biochemical. The protocol: An exemplary procedure for the in vitro ACC inhibition assay, which can be used to determine the inhibitory action of compounds of the invention toward either human (hACC2) or fungal (fACC2) ACC2, follows. The ADP-Glo™ Kinase Assay kit from Promega was used. The ADP-Glo™ Kinase Assay is a luminescent ADP detection assay to measure enzymatic activity by quantifying the amount of ADP produced during an enzyme reaction. The assay is performed in two steps; first, after the enzyme reaction, an equal volume of ADP-Glo™ Reagent is added to terminate the reaction and deplete the remaining ATP. Second, the Kinase Detection Reagent is added to simultaneously convert ADP to ATP and allow the newly synthesized ATP to be measured using a luciferase/luciferin reaction. Luminescence can be correlated to ADP concentrations by using an ATP-to-ADP conversion curve. The detailed procedure is as follows. 50 μL of the compound being tested (600 μM in DMSO) was added to a 384-well dilution plate. The compound was diluted 1:3 in succession in DMSO for each row for 11 wells. 0.5 μL ACC2 working solution was added to 384-well white Optiplate assay plate. 0.5 μL diluted compound solution in each column from step 2 was added to assay plate, each row containing 2 replicates. For the last 2 rows, 0.5 μL negative control (DMSO) was added in one row and 0.5 μL positive control (compound I-97) in the other. The plates were incubated at room temperature for 15 minutes. 5 μL substrate working solution was added to each well to initiate reaction. Final ACC2 reaction concentrations consist of: 5 nM ACC2, 20 μM ATP, 20 μM acetyl-CoA, 12 mM NaHCO3, 0.01% Brij35, 2 mM DTT, 5% DMSO, test compound concentrations: 30 μM, 10 μM, 3.33 μM, 1.11 μM, 0.37 μM, 0.123 μM, 0.0411 μM, 0.0137 μM, 0.00457 μM, 0.00152 μM, and 0.00051 μM. Plates were incubated at room temperature for 60 minutes. 10 μL ADP glo reagent was added. Plates were incubated at room temperature for 40 minutes. 20 μL kinase detection reagent was added. Plates were incubated at room temperature for 40 minutes, and then read on a Perkin Elmer EnVision 2104 plate reader for luminescence as Relative Light Units (RLU).
Data for each concentration, as well as the positive and negative controls, were averaged, and the standard deviation calculated. Percent inhibition was calculated by the formula: 100×(average negative control−compound)/(average negative control−average positive control). The IC50 for each compound was calculated by fitting the data with a non-linear regression equation: Y=Bottom+(Top−Bottom)/(1+10^((Log IC50−X)*HillSlope)), where X is the log of compound concentration and Y is percent inhibition.
For orientation: ADP-Glo first removes unused ATP, then detects ADP through luciferase.

The next experiment concerns C. krusei ATCC 6258. As to the kind of experiment: Anti-Fungal (Candida) Activity Assay, broth microtiter MIC. Type of experiment: cell-based, Candida krusei. Particulars: Pichia kudriavzevii, ATCC6258, 48 h, 3 replicates, MIC read at 48 h. The protocol:
Compounds of the present invention were evaluated in an Anti-Fungal Activity Assay. An exemplary procedure for the assay, which measures the susceptibility of various Candida species to anti-fungal compounds, follows. Compounds to be tested (including fluconazole and amphotericin B) were dissolved in DMSO to obtain a solution having a concentration of 1 mg/mL. These stock solutions were sterile filtered using a 0.22 um nylon syringe filter, then diluted in sterile water to achieve a final concentration of 128 μg/mL.
All species were grown from frozen stock by directly plating on to freshly prepared Sabouraud Dextrose agar (BD, Difco) and incubated overnight in ambient air at 35° C. for 24 h. A direct suspension was prepared in RPMI 1640+MOPS (Lonza, Biowhittaker) by taking individual colonies from the overnight cultures using sterile swabs soaked in sterile saline. The concentration of the suspension was determined using pre-determined standard curves. These suspensions were then diluted down to 5×10^3 CFU/mL to achieve a final concentration of 2.5×10^3 CFU/mL once added to the microtiter plate as per CLSI guidelines (M27-A3, Vol. 28 No. 14).
Broth microtiter MIC challenge plates were prepared following CLSI guidelines (M27-A3, Vol. 28 No. 14). The original CLSI guidelines focused on reading Candida MICs after 48 h of incubation. As reading after only 24 h offers a clear advantage of patient care, QC limits are being established for all drugs at 24 h. That being said there are no known interpretive breakpoints for amphotericin B at 24 h and the current fluconazole interpretive breakpoints are based on a 48 h reading. The MIC for the test compounds were recorded at 48 h. All MIC determinations were achieved by visually comparing the growth found in the antibiotic challenged wells to that of the growth control.

The next experiment deals with Botrtyis cinerea (Bc). Nature of the experiment: Growth inhibition assay of fungal pathogens. Type of experiment: cell-based. Particulars: 48 h, read-out: Concentration at 90% Inhibition Bc. The protocol:
Compounds of the present invention were evaluated in a growth inhibition assay to determine the ability to control the growth of fungal pathogens, such as Botrtyis cinerea (Bc), Collectotrichum graminicola (Cg), Diplodia maydis (Dm), Fusarium moniliforme (Fm), Fusarium virguhforme (Fv), Phytophthora capsici (Pc), Rhizoctonia solani (Rs), and Septoria tritici (St). Compounds to be tested were dissolved in DMSO at 2.5 mg/ml to produce compound stock solutions (“stocks”). Stocks were diluted with DMSO by a five-fold dilution in a 96-well stock plate, and two sets of final concentrations of 50, 10, and 2 ppm or 2, 0.4, and 0.08 ppm were obtained in vitro. A set of positive controls was also prepared, with various concentrations of Soraphen (2, 0.4, and 0.08 ppm), Metalaxyl (1.1, 0.22, and 0.04 ppm), and Metconazole (2, 0.4, and 0.08 ppm or 0.2, 0.04, and 0.008 ppm) after the five-fold dilutions. Negative controls on each plate included 2% DMSO, water, and a blank (media+2% DMSO). Fungal spores were isolated from previously sub-cultured plates of Botrtyis cinerea (Bc), Collectotrichum graminicola (Cg), Diplodia maydis (Dm), Fusarium moniliforme (Fm), Fusarium virguliforme (Fv), Phytophthora capsici (Pc), and Septoria tritici (St). The isolated spores were diluted to individual concentrations with a 17% V8 liquid media. For Rhizoctonia solani (Rs) and Pythium irregulare, 1.5 mm mycelial plugs were used in place of spores and ¼ Potato Dextrose Broth (PDB) was used for dilution. The spore concentrations and plug sizes were based on growth curves generated at 48 hours for each pathogen. In a second 96-well plate, the spores or mycelial plugs, media, diluted compound solutions, and controls were combined. Once the compound was added, a true final concentration of compound in each well was measured by an OD600 reading, which adjusted for any compound precipitation that might have occurred in the well. Plate readings were repeated at both 24 and 48 hours. The blank negative control was used as a background subtraction. Additional visual ratings were performed at both 24 and 48 hours for checking on precipitation and confirming efficacy. Visual and OD600 ratings of the compounds at 48 hours were compared to the 2% DMSO negative control, and the percent of pathogen growth inhibition was determined based on those values.

fACC2, sequence (Q00955 whole entry): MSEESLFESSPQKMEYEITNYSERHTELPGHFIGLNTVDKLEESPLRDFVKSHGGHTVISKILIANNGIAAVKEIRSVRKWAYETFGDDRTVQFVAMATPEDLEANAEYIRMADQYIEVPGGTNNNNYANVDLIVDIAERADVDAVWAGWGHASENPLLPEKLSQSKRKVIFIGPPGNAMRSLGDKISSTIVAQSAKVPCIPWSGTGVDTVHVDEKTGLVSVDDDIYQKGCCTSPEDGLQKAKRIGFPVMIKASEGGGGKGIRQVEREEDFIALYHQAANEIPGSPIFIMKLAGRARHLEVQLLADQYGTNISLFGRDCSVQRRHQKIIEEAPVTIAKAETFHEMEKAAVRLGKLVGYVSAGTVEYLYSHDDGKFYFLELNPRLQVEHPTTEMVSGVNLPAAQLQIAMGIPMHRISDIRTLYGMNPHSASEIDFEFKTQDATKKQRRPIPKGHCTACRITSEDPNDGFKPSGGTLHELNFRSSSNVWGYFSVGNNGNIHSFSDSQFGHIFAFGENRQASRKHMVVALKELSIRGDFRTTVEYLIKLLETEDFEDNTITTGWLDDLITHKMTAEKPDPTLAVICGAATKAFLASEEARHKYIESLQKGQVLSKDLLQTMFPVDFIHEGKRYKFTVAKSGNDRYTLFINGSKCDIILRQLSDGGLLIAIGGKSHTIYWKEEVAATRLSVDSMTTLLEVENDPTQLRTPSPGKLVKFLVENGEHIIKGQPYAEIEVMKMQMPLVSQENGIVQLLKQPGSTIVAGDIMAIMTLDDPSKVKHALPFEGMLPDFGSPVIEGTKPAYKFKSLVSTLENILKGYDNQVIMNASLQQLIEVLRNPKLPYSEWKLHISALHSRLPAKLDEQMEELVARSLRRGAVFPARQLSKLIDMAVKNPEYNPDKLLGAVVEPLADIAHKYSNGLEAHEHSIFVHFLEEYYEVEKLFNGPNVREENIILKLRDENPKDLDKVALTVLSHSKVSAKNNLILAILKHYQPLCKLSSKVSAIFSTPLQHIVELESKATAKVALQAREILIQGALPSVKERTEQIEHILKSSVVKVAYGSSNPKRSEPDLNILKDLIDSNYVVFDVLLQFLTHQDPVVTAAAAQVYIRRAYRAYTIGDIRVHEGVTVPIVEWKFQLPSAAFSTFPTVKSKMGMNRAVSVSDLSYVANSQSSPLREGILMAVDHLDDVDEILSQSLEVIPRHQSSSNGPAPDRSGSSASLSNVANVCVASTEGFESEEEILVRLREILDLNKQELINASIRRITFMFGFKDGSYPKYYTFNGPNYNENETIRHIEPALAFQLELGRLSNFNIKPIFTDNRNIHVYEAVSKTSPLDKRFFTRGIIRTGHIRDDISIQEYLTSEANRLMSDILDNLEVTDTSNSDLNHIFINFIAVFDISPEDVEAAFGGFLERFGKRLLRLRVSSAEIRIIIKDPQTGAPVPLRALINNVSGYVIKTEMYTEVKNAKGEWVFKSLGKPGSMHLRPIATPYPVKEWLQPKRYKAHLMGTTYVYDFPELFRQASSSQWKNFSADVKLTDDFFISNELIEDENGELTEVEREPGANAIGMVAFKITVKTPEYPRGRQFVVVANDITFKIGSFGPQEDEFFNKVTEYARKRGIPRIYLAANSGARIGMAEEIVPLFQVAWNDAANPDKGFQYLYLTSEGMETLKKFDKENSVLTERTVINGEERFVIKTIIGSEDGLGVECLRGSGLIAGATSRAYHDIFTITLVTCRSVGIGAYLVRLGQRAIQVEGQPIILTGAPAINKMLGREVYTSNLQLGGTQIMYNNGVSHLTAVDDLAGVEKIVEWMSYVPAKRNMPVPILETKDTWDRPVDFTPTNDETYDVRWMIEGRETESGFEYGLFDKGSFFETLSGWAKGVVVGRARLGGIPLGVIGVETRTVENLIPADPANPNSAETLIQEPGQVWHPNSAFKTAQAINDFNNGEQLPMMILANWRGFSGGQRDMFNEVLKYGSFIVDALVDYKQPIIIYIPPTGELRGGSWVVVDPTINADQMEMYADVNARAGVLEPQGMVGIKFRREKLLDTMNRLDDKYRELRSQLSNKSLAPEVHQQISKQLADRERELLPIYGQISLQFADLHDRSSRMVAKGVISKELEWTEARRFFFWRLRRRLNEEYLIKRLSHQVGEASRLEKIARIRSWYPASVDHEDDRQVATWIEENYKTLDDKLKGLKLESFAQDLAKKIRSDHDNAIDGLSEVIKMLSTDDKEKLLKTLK

Take `CCOC(=O)c1sc2c(c1C)c(=O)n([C@H](C)C(=O)NC(C)C)c(=O)n2C[C@H](OCCC#N)c1cc(F)ccc1OC` [Compound I-21, ethyl 1-((R)-2-(2-cyanoethoxy)-2-(5-fluoro-2-methoxyphenyl)ethyl)-3-((R)-1-(isopropylamino)-1-oxopropan-2-yl)-5-methyl-2,4-dioxo-1,2,3,4-tetrahydrothieno[2,3-d]pyrimidine-6-carboxylate]: on fACC2 (Table 2b (additional results)), the IC50 was in the range of 0.3 to 3 nM. The MIC in the experiment with C. krusei ATCC 6258 (Table 3b (additional results)) fell in the range of 2.1 to 4 µg/mL (≈ 3.57 to 6.8 µM). In addition, the IC90 in the experiment on Botrtyis cinerea (Bc) (Table 4b) came out at 0.4 µg/mL (≈ 0.68 µM).
Consider `CCOC(=O)c1sc2c(c1C)c(=O)n([C@@H](C)C(=O)N1CCCC1)c(=O)n2C[C@H](OCCC#N)c1cc(F)ccc1OC` [Compound I-23, ethyl 1-((R)-2-(2-cyanoethoxy)-2-(5-fluoro-2-methoxy-phenyl)ethyl)-5-methyl-2,4-dioxo-3-((S)-1-oxo-1-(pyrrolidin-1-yl)propan-2-yl)-1,2,3,4-tetrahydrothieno[2,3-d]pyrimidine-6-carboxylate], for which the IC50 against fACC2 (Table 2b (additional results)) was in the range of 3 to 10 nM. This compound came in with an MIC in the experiment on C. krusei ATCC 6258 (Table 3b (additional results)) of 0.25 to 1 µg/mL (≈ 0.416 to 1.66 µM). Besides, the IC90 in the experiment on Botrtyis cinerea (Bc) (Table 4b) was 10 µg/mL (≈ 16.6 µM).
`CCOC(=O)c1sc2c(c1C)c(=O)n(C(C)(C)C(=O)N1CCCC1)c(=O)n2C[C@H](OCCOC)c1cc(F)ccc1OC` [Compound I-13, (R)-ethyl 1-(2-(5-fluoro-2-methoxyphenyl)-2-(2-methoxy-ethoxy)ethyl)-5-methyl-3-(2-methyl-1-oxo-1-(pyrrolidin-1-yl)propan-2-yl)-2,4-dioxo-1,2,3,4-tetrahydrothieno[2,3-d]pyrimidine-6-carboxylate] had an IC50 against fACC2 (Table 2a) of 0.6 to 3 nM. Besides, the MIC in the experiment on C. krusei ATCC 6258 (Table 3a) is more than 4.1 µg/mL; in the experiment with C. krusei ATCC 6258 (Table 3b (additional results)), 2.1 to 4 µg/mL (≈ 3.39 to 6.45 µM). For the same compound, the IC90 in the experiment with Botrtyis cinerea (Bc) (Table 4a) and in the experiment on Botrtyis cinerea (Bc) (Table 4b) was 2 µg/mL (≈ 3.23 µM) throughout.
Consider `CCOC(=O)c1sc2c(c1C)c(=O)n(C(C)(C)C(N)=O)c(=O)n2C[C@H](OCCO)c1cc(F)ccc1OC` [Compound I-17, (R)-ethyl 3-(1-amino-2-methyl-1-oxopropan-2-yl)-1-(2-(5-fluoro-2-methoxyphenyl)-2-(2-hydroxyethoxy)ethyl)-5-methyl-2,4-dioxo-1,2,3,4-tetrahydro-thieno[2,3-d]pyrimidine-6-carboxylate], for which the IC50 against fACC2 (Table 2a) fell in the range of 0.6 to 3 nM; against fACC2 (Table 2b (additional results)), 0.3 to 3 nM. Besides, the results for the MIC with C. krusei ATCC 6258 (Table 3a) and against C. krusei ATCC 6258 (Table 3b (additional results)) were more than 4.1 µg/mL and 2.1 to 4 µg/mL (≈ 3.81 to 7.25 µM), respectively. For the same compound, the IC90 was not below 50 µg/mL in the experiment on Botrtyis cinerea (Bc) (Table 4a) and 10 µg/mL (≈ 18.1 µM) in the experiment on Botrtyis cinerea (Bc) (Table 4b).
In the case of `CCOC(=O)c1sc2c(c1C)c(=O)n([C@H](C)C(=O)N1CCCC1)c(=O)n2C[C@H](OCCC#N)c1cc(F)ccc1OC` [Compound I-24, ethyl 1-((R)-2-(2-cyanoethoxy)-2-(5-fluoro-2-methoxy-phenyl)ethyl)-5-methyl-2,4-dioxo-3-((R)-1-oxo-1-(pyrrolidin-1-yl)propan-2-yl)-1,2,3,4-tetrahydrothieno[2,3-d]pyrimidine-6-carboxylate], the IC50 on fACC2 (Table 2b (additional results)) was in the range of 0.3 to 3 nM. For the same compound, the MIC in the experiment with C. krusei ATCC 6258 (Table 3b (additional results)) lay in the range of 2.1 to 4 µg/mL (≈ 3.5 to 6.66 µM). Besides, the IC90 in the experiment on Botrtyis cinerea (Bc) (Table 4b) amounted to 2 µg/mL (≈ 3.33 µM).
In the case of `CCOC(=O)c1sc2c(c1C)c(=O)n(C(C)(C)C(=O)NC(C)C)c(=O)n2C[C@H](OC(C)C)c1ccccc1OC` [Compound I-9, (R)-ethyl 1-(2-isopropoxy-2-(2-methoxyphenyl)ethyl)-3-(1-(isopropylamino)-2-methyl-1-oxopropan-2-yl)-5-methyl-2,4-dioxo-1,2,3,4-tetrahydrothieno[2,3-d]pyrimidine-6-carboxylate], the IC50 at fACC2 (Table 2a) was in the range of 0.6 to 3 nM; against fACC2 (Table 2b (additional results)), 0.3 to 3 nM. The MIC in the experiment with C. krusei ATCC 6258 (Table 3a) and with C. krusei ATCC 6258 (Table 3b (additional results)) was 2.1 to 4 µg/mL (≈ 3.66 to 6.97 µM) each time. For the same compound, the IC90 in the experiment on Botrtyis cinerea (Bc) (Table 4a) and in the experiment on Botrtyis cinerea (Bc) (Table 4b) was 0.4 µg/mL (≈ 0.697 µM) in each case.
The compound `CCOC(=O)c1sc2c(c1C)c(=O)n([C@@H](C)C(=O)N(C)C(C)C)c(=O)n2C[C@H](OCCC#N)c1cc(F)ccc1OC` [Compound I-28, ethyl 1-((R)-2-(2-cyanoethoxy)-2-(5-fluoro-2-methoxy-phenyl)-ethyl)-3-((S)-1-(isopropyl(methyl)amino)-1-oxopropan-2-yl)-5-methyl-2,4-dioxo-1,2,3,4-tetrahydrothieno[2,3-d]pyrimidine-6-carboxylate] displayed an IC50 on fACC2 (Table 2b (additional results)) of 0.3 to 3 nM. The compound further showed an MIC in the experiment with C. krusei ATCC 6258 (Table 3b (additional results)) of 0.25 to 1 µg/mL (≈ 0.415 to 1.66 µM). For the same compound, in the experiment with Botrtyis cinerea (Bc) (Table 4b), the IC90 was found to be 2 µg/mL (≈ 3.32 µM).
Taken in the same sequence, the figures for `CCNC(=O)C(C)(C)n1c(=O)c2c(C)c(C(=O)OCC)sc2n(C[C@H](OCCC#N)c2ccccc2OC)c1=O` [Compound I-32, ethyl (R)-1-(2-(2-cyanoethoxy)-2-(2-methoxyphenyl)ethyl)-3-(1-(ethylamino)-2-methyl-1-oxopropan-2-yl)-5-methyl-2,4-dioxo-1,2,3,4-tetrahydrothieno[2,3-d]pyrimidine-6-carboxylate] were 0.3 to 3 nM, 0.25 to 1 µg/mL (≈ 0.438 to 1.75 µM) and 2 µg/mL (≈ 3.5 µM).
For `CCOC(=O)c1sc2c(c1C)c(=O)n(C(C)(C)C(N)=O)c(=O)n2C[C@H](OCCOC)c1cc(F)ccc1OC` [Compound I-10, (R)-ethyl 3-(1-amino-2-methyl-1-oxopropan-2-yl)-1-(2-(5-fluoro-2-methoxyphenyl)-2-(2-methoxyethoxy)ethyl)-5-methyl-2,4-dioxo-1,2,3,4-tetrahydrothieno[2,3-d]pyrimidine-6-carboxylate], the IC50 at fACC2 (Table 2a) and at fACC2 (Table 2b (additional results)) was 3 to 10 nM in each case. For the same compound, the results for the MIC with C. krusei ATCC 6258 (Table 3a) and against C. krusei ATCC 6258 (Table 3b (additional results)) were more than 4.1 µg/mL and 2.1 to 4 µg/mL (≈ 3.71 to 7.07 µM), respectively. In addition, the IC90 in the experiment with Botrtyis cinerea (Bc) (Table 4a) and in the experiment with Botrtyis cinerea (Bc) (Table 4b) was not below 50 µg/mL in each case.

In general, IC50 refers to the concentration that inhibits the measured activity by half. Low values mean inhibition by little substance, high ones a need for much substance. As usually defined, the MIC is the smallest concentration in the dilution series that meets the test's criterion for growth inhibition.
